# Values quoted from earlier work, collected in patent US7205293B2, “Benodiazepine spirohydantoin CGRP receptor antagonists” (Merck & Co., Inc., priority 2003, dated 2007).
# No end group written: not given here.
# Experiments:
# [1] = test system: middle meningeal artery diameter; conditions: rats, electrical stimulation of the dura mater, prior administration
# [2] = test system: facial blood flow; conditions: rat, trigeminal ganglion stimulation
# [3] = test system: facial blood flow; conditions: marmoset, electrical stimulation of the trigeminal ganglion
Compound,effect on increase of middle meningeal artery diameter [1],effect on increase of facial blood flow [2],effect on increase in facial blood flow [3]
"CGRP(8–37): a peptide CGRP antagonist (VTHRLAGLLSRSGGVVKNNFVPTNVGSKAF; ends and bridges not checked; UniProt P06881 90-119, looked up, fragment)",blocked,inhibited,–
NCCCC[C@H](NC(=O)[C@@H](Cc1cc(Br)c(O)c(Br)c1)NC(=O)N1CCC(N2Cc3ccccc3NC2=O)CC1)C(=O)N1CCN(c2ccncc2)CC1 [BIBN4096BS],–,–,blocked
